Patent publication US20260130395A1, “Water Dispersible Botanical Compositions” (Aquila Black Limited, priority 2021, published 2026)

Assay: Stability of cannabinoid compounds and Vitamin E components in Beverage 2 (AB Red) by LCMSMS
Assay type: physicochemical

In the case of CCCCCc1cc(O)c(C/C=C(\C)CCC=C(C)C)c(O)c1 [CBG, cannabigerol], the “Stability of Plant-Derived Cannabinoid Compounds in AB Red” value (“Stability” below) (stored at 8° C., 0 days) is reported as 4.75 µg/mL, the “Stability” value (stored at 8° C., 1 days) is reported as 4.62 µg/mL and the “Stability” value (stored at 8° C., 2 days) is reported as 4.79 µg/mL. The “Stability” value (stored at 8° C., 3 days) was 4.70 µg/mL, the “Stability” value (stored at 8° C., 5 days) was 4.75 µg/mL and the “Stability” value (stored at 8° C., 8 days) was 4.76 µg/mL. The “Stability” value (stored at 8° C., 9 days) was 4.72 µg/mL, the “Stability” value (stored at 8° C., 10 days) was 4.68 µg/mL and the “Stability” value (stored at 8° C., 11 days) was 4.77 µg/mL. For the same compound, the “Stability” value (stored at 8° C., 12 days) was 4.64 µg/mL, the “Stability” value (stored at 8° C., 15 days) was 4.68 µg/mL and the “Stability” value (stored at 8° C., 16 days) was 4.65 µg/mL. The “Stability” value (stored at 8° C., 17 days) was 4.77 µg/mL, the “Stability” value (stored at 8° C., 18 days) was 4.67 µg/mL and the “Stability” value (stored at 8° C., 19 days) was 4.71 µg/mL. The “Stability” value (stored at 8° C., 22 days) was 4.70 µg/mL, the “Stability” value (stored at 8° C., 23 days) was 4.66 µg/mL and the “Stability” value (stored at 8° C., 24 days) was 4.65 µg/mL. The “Stability” value (stored at 8° C., 25 days) was 4.73 µg/mL, the “Stability” value (stored at 8° C., 26 days) was 4.68 µg/mL and the “Stability” value (stored at 8° C., 29 days) was 4.80 µg/mL. The “Stability” value (stored at 8° C., 30 days) was 4.72 µg/mL, the “Stability” value (stored at 8° C., 60 days) was 4.70 µg/mL and the “Stability” value (stored at 8° C., 90 days) was 4.73 µg/mL. For the same compound, the “Stability” value (stored at 8° C., 120 days) was 4.68 µg/mL, the “Stability” value (stored at 8° C., 150 days) was 4.67 µg/mL and the “Stability” value (stored at 8° C., 180 days) was 4.65 µg/mL. For the same compound, the “Stability” value (stored at 8° C., 210 days) was 4.60 µg/mL, the “Stability” value (stored at 8° C., 240 days) was 4.68 µg/mL and the “Stability” value (stored at 8° C., 270 days) was 4.66 µg/mL. The “Stability” value (stored at 8° C., 300 days) was 4.70 µg/mL, the “Stability” value (stored at 8° C., 330 days) was 4.60 µg/mL and the “Stability” value (stored at 8° C., 360 days) was 4.63 µg/mL. The “Stability” value (stored at 8° C., 390 days) was 4.55 µg/mL, the “Stability” value (stored at 8° C., 420 days) was 4.58 µg/mL and the “Stability” value (stored at 8° C., 450 days) was 4.54 µg/mL. The “Stability” value (stored at 8° C., 480 days) was 4.51 µg/mL, the “Stability” value (stored at 8° C., 510 days) was 4.40 µg/mL and the “Stability” value (stored at 8° C., 540 days) was 4.42 µg/mL. The “Stability” value (stored at 8° C., 570 days) was 4.37 µg/mL, the “Stability” value (stored at 21-25° C., 0 days) was 4.75 µg/mL and the “Stability” value (stored at 21-25° C., 1 days) was 4.57 µg/mL. The “Stability” value (stored at 21-25° C., 2 days) was 4.61 µg/mL, the “Stability” value (stored at 21-25° C., 3 days) was 4.71 µg/mL and the “Stability” value (stored at 21-25° C., 5 days) was 4.66 µg/mL. The “Stability” value (stored at 21-25° C., 8 days) was 4.66 µg/mL, the “Stability” value (stored at 21-25° C., 9 days) was 4.74 µg/mL and the “Stability” value (stored at 21-25° C., 10 days) was 4.59 µg/mL. For the same compound, the “Stability” value (stored at 21-25° C., 11 days) was 4.72 µg/mL, the “Stability” value (stored at 21-25° C., 12 days) was 4.62 µg/mL and the “Stability” value (stored at 21-25° C., 15 days) was 4.80 µg/mL. For the same compound, the “Stability” value (stored at 21-25° C., 16 days) was 4.75 µg/mL, the “Stability” value (stored at 21-25° C., 17 days) was 4.63 µg/mL and the “Stability” value (stored at 21-25° C., 18 days) was 4.70 µg/mL. The “Stability” value (stored at 21-25° C., 19 days) was 4.66 µg/mL, the “Stability” value (stored at 21-25° C., 22 days) was 4.71 µg/mL and the “Stability” value (stored at 21-25° C., 23 days) was 4.67 µg/mL. For the same compound, the “Stability” value (stored at 21-25° C., 24 days) was 4.78 µg/mL, the “Stability” value (stored at 21-25° C., 25 days) was 4.56 µg/mL and the “Stability” value (stored at 21-25° C., 26 days) was 4.77 µg/mL. The “Stability” value (stored at 21-25° C., 29 days) was 4.78 µg/mL, the “Stability” value (stored at 21-25° C., 30 days) was 4.73 µg/mL and the “Stability” value (stored at 21-25° C., 60 days) was 4.61 µg/mL. For the same compound, the “Stability” value (stored at 21-25° C., 90 days) was 4.55 µg/mL, the “Stability” value (stored at 21-25° C., 120 days) was 4.61 µg/mL and the “Stability” value (stored at 21-25° C., 150 days) was 4.65 µg/mL. For the same compound, the “Stability” value (stored at 21-25° C., 180 days) was 4.53 µg/mL, the “Stability” value (stored at 21-25° C., 210 days) was 4.63 µg/mL and the “Stability” value (stored at 21-25° C., 240 days) was 4.56 µg/mL. For the same compound, the “Stability” value (stored at 21-25° C., 270 days) was 4.68 µg/mL, the “Stability” value (stored at 21-25° C., 300 days) was 4.47 µg/mL and the “Stability” value (stored at 21-25° C., 330 days) was 4.57 µg/mL. For the same compound, the “Stability” value (stored at 21-25° C., 360 days) was 4.47 µg/mL, the “Stability” value (stored at 21-25° C., 390 days) was 4.57 µg/mL and the “Stability” value (stored at 21-25° C., 420 days) was 4.51 µg/mL. The “Stability” value (stored at 21-25° C., 450 days) was 4.63 µg/mL, the “Stability” value (stored at 21-25° C., 480 days) was 4.44 µg/mL and the “Stability” value (stored at 21-25° C., 510 days) was 4.37 µg/mL. For the same compound, the “Stability” value (stored at 21-25° C., 540 days) was 4.49 µg/mL and the “Stability” value (stored at 21-25° C., 570 days) was 4.36 µg/mL.
